# Legend:
# [1] = target: T1, bovine rhodopsin activation of bovine rod transducin (Bos taurus, UniProt P02699); test: radioactive filter binding assay: rhodopsin activation of bovine rod transducin (35S-GTPγS binding); type: biochemical
# T1 construct: Rhodopsin can be purified from membrane fractions isolated from bovine rod outer segments; from tissue; host or cells: bovine retina / bovine rod outer segments
# Excerpt: Vision enhancing activity of the estradiol analogs or derivatives can be examined in accordance with methods described herein or well known in the art. For example, the compounds can be assessed for ability to promote rhodopsin activation of rod transducin using a well-described radioactive filter binding assay. Detailed procedures for carrying out the assay are described in the art, e.g., Kono et al., Biochem. 44:799, 2005; Kono et al., FEBS Lett. 580:229-232, 2006; and Robinson et al., Methods Enzymol. 315:207-218, 2000). […] Effect of estradiol or an analog compound on rhodopsin activation of rod transducing can then be measured by monitoring binding of [35S]GTPγS to transducin in the presence or absence of the compound. The reaction mixture can contain, e.g., an appropriate buffer (e.g., an HEPES buffer or 10 mM Tris/1 mM MES buffer (pH 7.5)), 1 mM dithiothreitol, 5 mM MgCl2, 115 mM NaCl, 2.5 μM transducin, 0.01% DM, and 5 nM pigment (as determined from the extinction coefficient).
# We examined the effect of the 17β-estradiol on opsin signaling and transducin activation. We measured the ability of estradiol to modulate rhodopsin activation of bovine rod transducin using the radioactive filter binding assay as described in Kono et al., Biochemistry 44:799-804, 2005; and Kono & Crouch, Methods Mol. Biol. 652:85-94, 2010. […]
# [2] = cited from earlier work
# T1 sequence (P02699 whole entry): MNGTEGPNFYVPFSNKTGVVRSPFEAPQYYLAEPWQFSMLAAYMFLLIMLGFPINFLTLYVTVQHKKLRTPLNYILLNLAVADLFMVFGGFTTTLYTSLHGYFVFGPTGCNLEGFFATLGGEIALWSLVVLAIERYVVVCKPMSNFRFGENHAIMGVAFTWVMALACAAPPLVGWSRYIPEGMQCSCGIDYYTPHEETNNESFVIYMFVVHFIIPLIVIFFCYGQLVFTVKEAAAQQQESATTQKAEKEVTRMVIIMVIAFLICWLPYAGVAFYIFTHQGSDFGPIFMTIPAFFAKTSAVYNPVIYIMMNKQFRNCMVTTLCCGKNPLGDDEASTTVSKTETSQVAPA
smiles,measurement,setting,value
C[C@]12CC[C@@H]3c4ccc(O)cc4CC[C@H]3[C@@H]1CC[C@@H]2O [17β-estradiol],35S-GTPγS bound to transducin in the presence vs. absence of 17β-estradiol,"[1]; bovine rhodopsin illuminated with 15 sec pulse of yellow light, Rho+estradiol vs Rho alone, FIG. 1",about three-fold
same,rhodopsin activation of rod transducin (result in words),[1]; presence of 17β-estradiol,significantly up-regulated
same,potency in estrogenic effect relative to estriol,[2]; estradiol vs estriol,about 80 times
same,potency in estrogenic effect relative to estrone,[2]; estradiol vs estrone,about 10 times

# Source: US20140378426A1, “Methods and compositions for enhancing visual function” (priority 2013, published 2014)
